Data reported in patent publication US20030073846A1, “Aminoalcohol derivatives” (priority 2000, published 2003).
Where a name gives a salt, the structure may show the parent alone.

System: anesthetized dog
Assay: Effect on the increase in intravesical pressure induced by carbachol in anesthetized dog
Assay type: in vivo
Conditions: for Increase in intravesical pressure: female Beagle dogs under halothane anesthesia, N = 3, P < 0.01 vs Control; for relaxation effect on the smooth muscle in the urinary bladder: conclusion in words from the test results of Test 1
Protocol: Effect on the increase in intravesical pressure induced by carbachol in anesthetized dog
Female Beagle dogs weighing 8.0-15.0 kg were fasted for 24 hours and maintained under halothane anesthesia. A 12F Foley catheter was lubricated with water soluble jelly, inserted into the urethral orifice and advanced approximately 10 cm until the balloon tip was placed well inside the bladder. The balloon was then inflated with 5 ml of room air and catheter slowly withdrawn just part the first resistance that is felt at the bladder neck. Urine was completely drained out through the catheter, and 30 ml of biological saline was infused. The catheter was connected to pressure transducer, and intravesical pressure was continuously recorded. The test compound was injected intravenously at five minutes before the administration of carbachol (1.8 μg/kg).

SMILES: OC[C@H](Cc1ccc(O)cc1)NC[C@H](O)COc1ccccc1 [Test compound (1), (S)-1-Phenoxy-3-[[(S)-1-hydroxy-3-(4-hydroxyphenyl)-2-propyl]amino]-2-propanol]
- Increase in intravesical pressure (0.032 mg/kg intravenously five minutes before carbachol (1.8 μg/kg), Control 6.8 ± 1.1): 2.0 ± 0.3 mmHg
- relaxation effect on the smooth muscle in the urinary bladder: possess a relaxation effect on the smooth muscle in the urinary bladder

SMILES: CC(C)(Cc1ccc(Oc2ccc(C(N)=O)cn2)cc1)NC[C@H](O)COc1cccc2[nH]c3ccccc3c12 [Test compound (2), (S)-4-[2-Hydroxy-3-[[2-[4-(5-carbamoyl-2-pyridyloxy)phenyl]-1,1-dimethylethyl]amino]propoxy]-carbazole hydrochloride]
- Increase in intravesical pressure (0.100 mg/kg intravenously five minutes before carbachol (1.8 μg/kg), Control 6.9 ± 0.7): 4.3 ± 0.3 mmHg
- relaxation effect on the smooth muscle in the urinary bladder: possess a relaxation effect on the smooth muscle in the urinary bladder
